# ChEMBL document CHEMBL1201862, “PubChem BioAssay data set” (2004)
# Active and inactive are the calls of the source.
# Tests used:
# Cytochrome P450 3A4 = Cytochrome P450 3A4 (Homo sapiens, UniProt P08684); settings: Potency;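 note: confirmatory qHTS run detecting inhibitors and substrates of CYP3A4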
# [1] = THP-1 cell cytotoxicity, dose response, cytotoxicity control for Vif-APOBEC3G degradation inhibitor project, THP-1 cells (AID 1117359); format: functional; settings: Human immunodeficiency virus 1, THP-1
# Vero = Vero cell cytotoxicity, cytotoxicity control for flavivirus capping enzyme inhibitors (AID 588742); format: functional; settings: Chlorocebus sabaeus
# [2] = inhibitors of Vif binding to APOBEC3G peptide, primary screen, biochemical, TR-FRET, GST-Vif 1-94, biotin-A3G peptide, dose response retest (AID 1117319); format: functional;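 note: TR-FRET signal of purified GST-Vif binding a biotinylated A3G peptide; inhibitors lower the FRET signal by blocking Vif and A3G binding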
# Kallikrein-7 = Kallikrein-7 (Homo sapiens, UniProt P49862); assay: Fluorescence Intensity-based biochemical primary high throughput dose response assay to identify activators of kallikrein-7 (K7) zymogen.
# Sequence of Kallikrein-7 (P49862 whole entry): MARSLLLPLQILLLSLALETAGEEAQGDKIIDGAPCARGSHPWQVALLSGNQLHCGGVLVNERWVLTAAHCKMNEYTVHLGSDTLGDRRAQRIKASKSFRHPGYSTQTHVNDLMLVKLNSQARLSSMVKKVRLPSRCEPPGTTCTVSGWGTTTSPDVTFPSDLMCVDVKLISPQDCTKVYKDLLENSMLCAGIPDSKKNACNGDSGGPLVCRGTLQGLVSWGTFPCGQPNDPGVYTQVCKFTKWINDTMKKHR
# [3] = biological target: DNA dC->dU-editing enzyme APOBEC-3G (Homo sapiens, UniProt Q9HC16); assay: Dose Response confirmation of small molecule APOBEC3G DNA Deaminase Inhibitors via a fluorescence-based single-stranded DNA deaminase assay. [Related pubchem assays (depositor defined):AID493012, AID493028]; format: functional
# Sequence of DNA dC->dU-editing enzyme APOBEC-3G (Q9HC16 whole entry): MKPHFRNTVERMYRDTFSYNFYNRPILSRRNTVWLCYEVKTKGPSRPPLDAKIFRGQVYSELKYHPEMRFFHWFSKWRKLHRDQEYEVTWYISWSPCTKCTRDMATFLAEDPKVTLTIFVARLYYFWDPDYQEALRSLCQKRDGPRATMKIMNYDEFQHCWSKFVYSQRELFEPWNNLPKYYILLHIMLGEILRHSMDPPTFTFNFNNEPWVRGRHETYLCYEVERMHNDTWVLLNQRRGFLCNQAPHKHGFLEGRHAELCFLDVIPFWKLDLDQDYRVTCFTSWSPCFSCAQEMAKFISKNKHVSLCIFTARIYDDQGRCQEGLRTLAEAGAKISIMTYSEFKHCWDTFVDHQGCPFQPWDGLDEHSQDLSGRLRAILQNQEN
# [4] = Luminescence Cell-Based Dose Confirmation to Identify Activators of 5'UTR Stem-Loop Driven Alpha-Synuclein mRNA Translation in H4 Neuroglioblastoma Cells. [Related pubchem assays: 1829 (Project Summary), 1814 (Primary HTS)]; format: functional
# H4 = assay: Luminescence Cell-Based Dose Response HTS to Identify Activators of 5'UTR Stem-Loop Driven Prion Protein mRNA Translation in H4 Neuroglioblastoma Cells. [Related pubchem assays: 1829 (Project Summary), 1814 (Primary HTS)]; format: functional; settings: Homo sapiens
# [5] = Luminescence Cell-Based Dose Response to Identify Activators of 5'UTR Stem-Loop Driven Prion Protein mRNA Translation in H4-C Neuroglioblastoma Cells. [Related pubchem assays: 1829 (Project Summary), 1814 (Primary HTS)]; format: functional
# [6] = Luminescence Cell-Based Dose Response to Identify Activators of Luciferase Translation or Activity in H4-C Neuroglioblastoma Cells. [Related pubchem assays: 1829 (Project Summary), 1814 (Primary HTS)]; format: functional
# [7] = Luminescence Cell-Based Dose Response HTS to Identify Activators of Luciferase Translation or Activity in H4 […] Cells. [Related pubchem assays: 1829 (Project Summary), 1814 (Primary HTS)]; format: functional
# [8] = Luminescence Cell-Based Dose Confirmation HTS to Identify Activators of 5'UTR Stem-Loop Driven Alpha-Synuclein mRNA Translation in H4 Neuroglioblastoma Cells. [Related pubchem assays: 1829 (Project Summary), 1814 (Primary HTS)]; format: functional
# [9] = biological target: Protein-tyrosine kinase 2-beta (Homo sapiens, UniProt Q14289);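 note: potency of inhibitors of PYK2 kinase phosphorylation of poly-GT substrate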
# Sequence of Protein-tyrosine kinase 2-beta (Q14289 whole entry): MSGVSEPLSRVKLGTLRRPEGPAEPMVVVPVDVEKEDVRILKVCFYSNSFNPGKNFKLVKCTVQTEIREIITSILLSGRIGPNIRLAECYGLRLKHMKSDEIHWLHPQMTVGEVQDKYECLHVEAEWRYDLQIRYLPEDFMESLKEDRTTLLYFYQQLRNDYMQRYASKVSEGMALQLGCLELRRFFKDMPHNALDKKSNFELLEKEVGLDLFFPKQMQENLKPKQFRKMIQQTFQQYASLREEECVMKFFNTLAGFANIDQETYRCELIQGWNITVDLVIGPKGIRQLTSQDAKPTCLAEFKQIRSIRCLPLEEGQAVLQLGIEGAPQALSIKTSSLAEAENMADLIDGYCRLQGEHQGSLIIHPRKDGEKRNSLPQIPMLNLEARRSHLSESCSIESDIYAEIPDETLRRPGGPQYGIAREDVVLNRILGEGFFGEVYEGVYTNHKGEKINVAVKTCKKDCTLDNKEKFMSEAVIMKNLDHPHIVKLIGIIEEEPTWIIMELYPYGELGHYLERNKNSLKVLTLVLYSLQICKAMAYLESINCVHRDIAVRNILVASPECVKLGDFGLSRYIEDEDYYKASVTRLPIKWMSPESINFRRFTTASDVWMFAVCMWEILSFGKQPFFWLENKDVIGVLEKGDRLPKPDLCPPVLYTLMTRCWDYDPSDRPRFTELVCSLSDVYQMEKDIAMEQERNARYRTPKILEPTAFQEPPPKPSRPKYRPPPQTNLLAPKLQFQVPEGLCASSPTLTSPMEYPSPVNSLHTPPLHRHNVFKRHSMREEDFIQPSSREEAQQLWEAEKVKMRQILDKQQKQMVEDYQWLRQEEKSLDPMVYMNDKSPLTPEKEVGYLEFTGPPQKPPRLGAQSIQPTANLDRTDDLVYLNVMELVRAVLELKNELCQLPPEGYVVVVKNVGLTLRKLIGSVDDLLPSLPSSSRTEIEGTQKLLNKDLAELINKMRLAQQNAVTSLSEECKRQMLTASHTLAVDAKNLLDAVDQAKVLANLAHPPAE
# [10] = biological target: T1, Neuropeptides B/W receptor type 1 (Homo sapiens, UniProt P48145); assay: Fluorescence-based dose response cell-based high throughput screening assay to identify antagonists of the G-protein coupled receptor 7 (GPR7). [Related pubchem assays: 1952 (Screening assay (GPR7 antagonists).), 1880 (Summary AID.)]; format: functional
# T1 sequence (P48145 whole entry): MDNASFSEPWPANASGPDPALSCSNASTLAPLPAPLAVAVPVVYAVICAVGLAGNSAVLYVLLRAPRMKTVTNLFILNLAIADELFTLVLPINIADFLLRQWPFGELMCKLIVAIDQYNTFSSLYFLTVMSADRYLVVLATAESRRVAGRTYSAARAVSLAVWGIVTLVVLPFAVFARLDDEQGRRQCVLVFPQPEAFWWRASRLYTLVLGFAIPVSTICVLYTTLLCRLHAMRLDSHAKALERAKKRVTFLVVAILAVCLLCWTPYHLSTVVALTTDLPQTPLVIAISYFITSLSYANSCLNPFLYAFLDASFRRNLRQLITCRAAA
# [11] = biological target: Melanin-concentrating hormone receptor 1 (Homo sapiens, UniProt Q99705); assay: Fluorescence-based counterscreen for antagonists of the G-protein coupled receptor 7 (GPR7): cell-based high throughput dose response assay to identify antagonists of the melanin-concentrating hormone receptor 1 (MCHR1).; format: functional
# Sequence of Melanin-concentrating hormone receptor 1 (Q99705 whole entry): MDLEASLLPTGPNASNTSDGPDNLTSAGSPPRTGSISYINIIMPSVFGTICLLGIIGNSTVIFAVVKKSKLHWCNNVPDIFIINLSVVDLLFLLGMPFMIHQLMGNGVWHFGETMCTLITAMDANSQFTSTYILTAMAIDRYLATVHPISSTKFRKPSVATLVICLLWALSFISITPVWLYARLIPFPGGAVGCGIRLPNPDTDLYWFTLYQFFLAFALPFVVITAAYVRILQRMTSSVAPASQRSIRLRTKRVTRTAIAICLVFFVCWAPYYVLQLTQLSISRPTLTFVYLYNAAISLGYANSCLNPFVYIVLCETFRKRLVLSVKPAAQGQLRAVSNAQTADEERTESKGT
# HEK293 = assay: HEK293T cell cytotoxicity, dose response, cytotoxicity control, ATP luminescence, cherry-pick samples (AID 687005); format: functional, cell-based; settings: Homo sapiens;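 note: cells exposed to compound for 48 hours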
# [12] = HEK293 Cytotoxicity Assay Measured in Cell-Based System Using Plate Reader - 7071-01_Inhibitor_Dose_CherryPick_Activity_Set2.; format: functional
# [13] = biological target: T2, Zinc finger protein mex-5 (Caenorhabditis elegans, UniProt Q9XUB2); assay: MEX-5/TCR-2 RNA interaction inhibitors, dose response, biochemical, C. elegans, fluorescence polarization (AID 1960)
# T2 sequence (Q9XUB2 whole entry): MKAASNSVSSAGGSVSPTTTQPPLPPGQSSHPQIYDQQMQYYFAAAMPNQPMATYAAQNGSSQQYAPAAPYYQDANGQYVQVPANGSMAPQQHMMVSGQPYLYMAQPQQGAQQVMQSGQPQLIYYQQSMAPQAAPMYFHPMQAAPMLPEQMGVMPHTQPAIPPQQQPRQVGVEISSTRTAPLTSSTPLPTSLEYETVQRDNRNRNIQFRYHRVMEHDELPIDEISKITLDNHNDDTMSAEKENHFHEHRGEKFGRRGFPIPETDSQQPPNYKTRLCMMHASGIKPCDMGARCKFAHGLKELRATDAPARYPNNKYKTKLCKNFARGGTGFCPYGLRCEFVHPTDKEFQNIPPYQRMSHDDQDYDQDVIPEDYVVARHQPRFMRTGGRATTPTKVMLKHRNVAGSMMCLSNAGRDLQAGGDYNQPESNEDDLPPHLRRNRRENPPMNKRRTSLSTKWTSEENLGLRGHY
# [14] = biological target: T3, RNA-binding protein pos-1 (Caenorhabditis elegans, UniProt G5EF15); assay: inhibitors of POS-1/mex-3 RNA binding, dose response, biochemical, fluorescence polarization (AID 1964);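 note: purified POS-1 fused to maltose binding protein made in E. coli; potency of compounds blocking POS-1 binding to fluorescent RNA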
# T3 sequence (G5EF15 whole entry): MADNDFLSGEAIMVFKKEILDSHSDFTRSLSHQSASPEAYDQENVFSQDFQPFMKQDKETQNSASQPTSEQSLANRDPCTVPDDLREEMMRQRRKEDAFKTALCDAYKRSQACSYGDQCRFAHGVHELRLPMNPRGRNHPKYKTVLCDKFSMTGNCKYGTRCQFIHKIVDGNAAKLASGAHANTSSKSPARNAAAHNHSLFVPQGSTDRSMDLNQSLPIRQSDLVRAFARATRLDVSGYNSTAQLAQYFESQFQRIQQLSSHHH
# [15] = biological target: Heat shock protein HSP 90-alpha (Homo sapiens, UniProt P07900); format: functional, organism-based
# [16] = cytotoxicity in HEK-293T cells, dose response, cytotoxicity control for TCR NF-kB inhibitor project, luminescence, T-cell screen hits (AID 489026); format: functional, cell-based;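 note: cells exposed to compound about 14 hours before the viability readout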
# INS1 = assay: beta cell apoptosis inhibitors, cytokine rescue, dose response, luminescence, retest (AID 449756); format: functional, cell-based; settings: Rattus norvegicus;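 note: cell death triggered by IL-1 beta plus TNF-alpha plus IFN-gamma mixture; protective hits raise ATP signal compared with cytokine alone wells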
# Beta-galactosidase = Beta-galactosidase (Escherichia coli, UniProt Q8VNN2); assay: beta-galactosidase enzyme inhibitors and activators, dose response, artefact control for CCR6 antagonist project, biochemical, E. coli enzyme, set 3 (AID 504712); format: functional
# Sequence of Beta-galactosidase (Q8VNN2 whole entry): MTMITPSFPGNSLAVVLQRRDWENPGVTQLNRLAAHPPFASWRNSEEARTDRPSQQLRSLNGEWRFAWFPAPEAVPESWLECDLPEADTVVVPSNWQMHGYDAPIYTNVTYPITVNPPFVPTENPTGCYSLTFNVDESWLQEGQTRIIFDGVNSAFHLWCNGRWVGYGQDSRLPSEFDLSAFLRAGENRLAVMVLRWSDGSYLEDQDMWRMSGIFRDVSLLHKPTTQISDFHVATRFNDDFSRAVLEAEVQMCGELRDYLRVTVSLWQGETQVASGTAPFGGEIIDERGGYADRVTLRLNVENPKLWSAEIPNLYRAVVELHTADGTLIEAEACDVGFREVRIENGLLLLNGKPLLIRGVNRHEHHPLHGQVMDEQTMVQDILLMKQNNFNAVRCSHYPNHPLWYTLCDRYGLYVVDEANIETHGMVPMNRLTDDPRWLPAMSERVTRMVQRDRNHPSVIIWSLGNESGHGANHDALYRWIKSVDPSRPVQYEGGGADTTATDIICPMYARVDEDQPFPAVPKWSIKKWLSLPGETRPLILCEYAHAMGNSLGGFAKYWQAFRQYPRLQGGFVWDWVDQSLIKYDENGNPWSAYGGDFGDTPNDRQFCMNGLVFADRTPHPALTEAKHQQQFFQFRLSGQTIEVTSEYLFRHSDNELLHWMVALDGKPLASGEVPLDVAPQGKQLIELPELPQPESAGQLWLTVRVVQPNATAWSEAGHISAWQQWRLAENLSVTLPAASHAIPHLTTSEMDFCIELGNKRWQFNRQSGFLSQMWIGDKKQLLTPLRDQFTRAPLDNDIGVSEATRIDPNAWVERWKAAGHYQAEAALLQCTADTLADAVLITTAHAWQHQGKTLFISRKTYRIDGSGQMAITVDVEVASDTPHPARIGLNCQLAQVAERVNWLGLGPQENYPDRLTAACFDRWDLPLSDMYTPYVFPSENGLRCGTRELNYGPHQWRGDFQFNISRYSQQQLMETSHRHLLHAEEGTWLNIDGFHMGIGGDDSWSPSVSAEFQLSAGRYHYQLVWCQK
# [17] = inhibitors of firefly luciferase expression or activity, dose response, H4 neuroglioma cells, luminescence (AID 1990); format: functional, cell-based
# [18] = Luminescence Cell-Based Dose Response HTS to Identify Inhibitors of 5'UTR Stem-Loop Driven Prion Protein mRNA Translation in H4 Neuroglioblastoma Cells. [Related pubchem assays: 1827 (Project Summary), 1813 (Primary HTS)]; format: functional
# [19] = inhibitors of SNCA 5'UTR-driven reporter translation, confirmation, H4 neuroglioma cells, luminescence (AID 1988); format: functional, cell-based
# Cytochrome P450 2C9 = Cytochrome P450 2C9 (Homo sapiens, UniProt P11712)
# Sequence of Cytochrome P450 2C9 (P11712 whole entry): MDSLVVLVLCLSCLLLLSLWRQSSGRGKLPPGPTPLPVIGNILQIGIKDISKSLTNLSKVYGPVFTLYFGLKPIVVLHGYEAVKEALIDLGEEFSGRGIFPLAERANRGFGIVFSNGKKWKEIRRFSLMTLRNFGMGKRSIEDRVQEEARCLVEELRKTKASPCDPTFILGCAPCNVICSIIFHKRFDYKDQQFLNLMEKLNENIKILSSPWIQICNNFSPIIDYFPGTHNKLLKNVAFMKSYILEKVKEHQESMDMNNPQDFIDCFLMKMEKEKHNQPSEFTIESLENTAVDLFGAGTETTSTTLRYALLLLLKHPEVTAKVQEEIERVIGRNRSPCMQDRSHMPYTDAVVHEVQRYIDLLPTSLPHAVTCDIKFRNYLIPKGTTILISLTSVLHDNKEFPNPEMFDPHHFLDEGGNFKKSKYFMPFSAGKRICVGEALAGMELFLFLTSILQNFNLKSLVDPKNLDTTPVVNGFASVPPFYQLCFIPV
# Sequence of Cytochrome P450 3A4 (P08684 whole entry): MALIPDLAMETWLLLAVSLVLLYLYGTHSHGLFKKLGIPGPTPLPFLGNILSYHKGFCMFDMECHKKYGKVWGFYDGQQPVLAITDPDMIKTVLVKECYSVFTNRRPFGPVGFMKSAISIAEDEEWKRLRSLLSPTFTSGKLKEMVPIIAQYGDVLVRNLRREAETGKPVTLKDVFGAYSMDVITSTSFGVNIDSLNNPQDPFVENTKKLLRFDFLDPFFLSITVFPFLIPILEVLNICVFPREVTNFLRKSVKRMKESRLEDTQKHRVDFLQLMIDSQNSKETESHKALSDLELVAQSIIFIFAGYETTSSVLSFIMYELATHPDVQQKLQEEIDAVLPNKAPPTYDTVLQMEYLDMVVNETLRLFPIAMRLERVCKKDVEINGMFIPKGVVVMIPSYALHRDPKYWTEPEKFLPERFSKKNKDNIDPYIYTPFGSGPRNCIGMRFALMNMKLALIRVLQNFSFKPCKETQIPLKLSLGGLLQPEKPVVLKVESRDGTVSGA
compound,measurement,setting,value
CCN(CC)CCCn1c(-c2ccccc2)nc2c(N(CCOC)CCOC)nc(C)nc21,AC50,Cytochrome P450 3A4,20 µM (inconclusive)
CNc1sc(C(=O)c2cccs2)c(N)c1-c1nc2ccccc2s1,CC50,[1],19.1 µM (active)
same,CC50,Vero,> 40 µM (active)
same,IC50,[2],> 100 µM (active)
COc1cc2c(cc1OC)-c1c(OC)c(OC)c(C=O)c3c1[C@H](C2)N(C)CC3,AC50,Cytochrome P450 3A4,7.94 µM (inconclusive)
Cc1ccccc1-n1c2nc(=O)n(C)c(=O)c-2cc2ccccc21,EC50,Kallikrein-7,85.3 µM (inactive)
CC(Sc1ccc2nnc(-c3ccc(F)cc3)n2n1)C(=O)O (configuration not stated),IC50,[3],21 µM (active)
COc1ccc(-c2oc3cc(O[C@@H]4OC(CO)C(O)C(O)C4O)c(OC)c(O)c3c(=O)c2OC)cc1O (some centres not stated),AC50,Cytochrome P450 3A4,25.1 µM (inconclusive)
CCc1cc2c(O)c(-c3ccon3)c(=N)oc2cc1OC,EC50,[4],0.591 µM (active)
same,EC50,H4,31.8 µM (active)
same,EC50,[5],> 12 µM (not active)
same,EC50,[6],1.5 µM (active)
same,EC50,[7],6.58 µM (active)
same,EC50,[8],7.6 µM (active)
CC1(C)CC(=O)c2cnc(N3CCc4ccccc4C3)nc2C1,EC50,[4],0.283 µM (active)
same,EC50,[5],0.284 µM (active)
same,EC50,[6],0.268 µM (active)
same,EC50,[7],< 0.1 µM (inconclusive)
O=[N+]([O-])c1ccc(CNc2ccc(F)cc2)s1,CC50,[1],> 40 µM (active)
same,IC50,[2],> 100 µM (active)
CNc1cncc(-c2ccc(OC)cc2)n1,EC50,Kallikrein-7,> 69.5 µM (inactive)
CCOC(=O)C1=C(c2ccccc2)OC(N)=C(C#N)C1c1cccs1 (configuration not stated),IC50,[9],> 69.5 µM (not active)
CC(=O)c1ccc(NC(=O)c2ccc(NC(=O)c3ccco3)cc2)cc1,IC50,[3],25.3 µM (active)
C=C1C(=O)O[C@@H]2C3OC3(C)CC/C=C(\C)CC[C@@H]12 (some centres not stated),AC50,Cytochrome P450 3A4,31.6 µM (inconclusive)
O=[N+]([O-])c1ccc(N2CCN(Cc3ccccc3)CC2)nc1,IC50,[10],33.4 µM (not active)
same,IC50,[11],22.8 µM (not active)
COCCNC(=O)C[C@@H]1CC[C@H]2[C@@H](COC[C@H](O)CN2Cc2cccc(-c3ccncc3)c2)O1,AC50,HEK293,32.6 µM (active)
same,AC50,[12],32.6 µM (active)
O=C(c1ccc2c(c1)OCO2)N(CC1CCCO1)C1(C(=O)NC2CCCC2)CCCCC1 (configuration not stated),IC50,[10],> 43.8 µM (not active)
same,IC50,[11],> 43.8 µM (not active)
CCN1CCN(Cc2c(O)ccc3c2O/C(=C\c2ccc(C)cc2)C3=O)CC1,EC50,[13],111 µM (active)
same,EC50,[14],38.9 µM (active)
same,EC50,Kallikrein-7,23.9 µM (inactive)
N#CCSc1nc(Nc2ccc3c(c2)OCO3)c2ccccc2n1,IC50,[9],> 69.5 µM (not active)
Cc1ccc(O)c(N=Nc2nccs2)c1,AC50,[15],2.1 µM (active)
same,IC50,[16],> 80 µM (inactive)
same,AC50,INS1,1.15 µM (active)
same,IC50,Beta-galactosidase,> 66.6 µM (inactive)
CCCN(CCC)CCOc1cc(C)ccc1C(C)C,IC50,[10],10.9 µM (not active)
same,EC50,[17],> 120 µM (not active)
same,EC50,[18],> 120 µM (not active)
same,IC50,[11],6.6 µM (active)
same,EC50,[19],> 120 µM (not active)
CCOC(=O)CSc1nnc(-c2ccc(S(=O)(=O)NCc3cccs3)cc2)o1,IC50,[10],> 43.8 µM (not active)
same,IC50,[11],> 43.8 µM (not active)
CC(C)C1Oc2ccccc2C(=O)N(CC(=O)c2ccc3c(c2)OCCO3)C1=O (configuration not stated),EC50,[4],0.425 µM (active)
same,EC50,H4,< 0.1 µM (active)
same,EC50,[5],0.33 µM (active)
same,EC50,[6],0.447 µM (active)
same,EC50,[7],< 0.1 µM (active)
same,EC50,[8],0.131 µM (active)
Cc1ccc(CC(NC(=O)c2ccccc2)C(=O)NC(C)C(=O)O)cc1 (configuration not stated),IC50,[2],> 100 µM (active)
C[C@@H]1CN([C@@H](C)CO)S(=O)(=O)c2ccc(C3=CCCC3)cc2O[C@@H]1CN(C)Cc1ccccc1F,AC50,HEK293,23.9 µM (active)
same,AC50,[12],23.9 µM (active)
C[C@H](O)[C@@H]1C(=O)N2CCc3c([nH]c4ccccc34)[C@@H]2C[C@@H]1N(C)C(=O)c1cc(Cl)cc(Cl)c1,EC50,Kallikrein-7,> 23.2 µM (inactive)
O=C(/C=C/c1cnc2ccccc2n1)NC12CC3CC(CC(C3)C1)C2,EC50,[4],0.62 µM (active)
same,EC50,H4,0.921 µM (active)
same,EC50,[5],0.434 µM (active)
same,EC50,[6],0.32 µM (active)
same,EC50,[7],< 0.1 µM (active)
Cc1cc(C)cc(N2C(=O)CC(Sc3nnnn3-c3ccccc3)C2=O)c1 (configuration not stated),AC50,Cytochrome P450 2C9,inconclusive
same,IC50,Beta-galactosidase,> 66.6 µM (inactive)
